By Ki is commonly meant a dissociation constant, usually derived from enzyme kinetics or from competition with a known ligand.

The structures appear in SMILES notation.

In the assay the target is T1, 5HT6-human recombinant receptor (Homo sapiens, UniProt P50406).
T1 construct: purchased Receptor Biology; host or cells: HEK-293 cells (membranes)
T1 sequence (P50406 whole entry): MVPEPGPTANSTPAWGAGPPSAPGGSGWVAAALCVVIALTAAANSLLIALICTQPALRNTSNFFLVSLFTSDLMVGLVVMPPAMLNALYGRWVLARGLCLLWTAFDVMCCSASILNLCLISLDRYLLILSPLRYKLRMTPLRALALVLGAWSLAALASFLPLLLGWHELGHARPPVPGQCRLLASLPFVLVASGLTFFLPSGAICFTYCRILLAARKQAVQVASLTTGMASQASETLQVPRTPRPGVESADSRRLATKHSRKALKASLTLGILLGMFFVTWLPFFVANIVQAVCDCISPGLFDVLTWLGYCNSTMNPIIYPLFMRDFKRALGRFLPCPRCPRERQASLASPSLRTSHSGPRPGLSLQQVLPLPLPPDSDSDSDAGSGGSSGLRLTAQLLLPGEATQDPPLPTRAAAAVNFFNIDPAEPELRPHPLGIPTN
The experiment in a line: Binding to Serotonin Receptor 5-HT6 ([3H]-LSD displacement). The following applies: membranes of HEK-293 cells expressing the receptor; radioligand [3H]-LSD 2.7 nM; 60 minutes at 37° C.; triplicate. The method, then: I) Binding to Serotonin Receptor 5-HT6
Cell membranes of HEK-293 cells expressing the 5HT6-human recombinant receptor were supplied by Receptor Biology. In said membranes the receptor concentration is 2.18 pmol/mg protein and the protein concentration is 9.17 mg/ml. The experimental protocol follows the method of B. L. Roth et al. [B. L. Roth, S. C. Craigo, M. S. Choudhary, A. Uluer, F. J. Monsma, Y. Shen, H. Y. Meltzer, D. R. Sibley: Binding of Typical and Atypical Antipsychotic Agents to 5-Hydroxytryptamine-6 and Hydroxytryptamine-7 Receptors. The Journal of Pharmacology and Experimental Therapeutics, 1994, 268, 1403] with the following slight changes. The respective part of the literature description is hereby incorporated by reference and forms part of the disclosure.
The commercial membrane is diluted (1:40 dilution) with the binding buffer: 50 mM Tris-HCl, 10 mM MgCl2, 0.5 mM EDTA (pH 7.4). The radioligand used is [^3H]-LSD at a concentration of 2.7 nM with a final volume of 200 μl. Incubation is initiated by adding 100 μl of membrane suspension, (≈22.9 μg membrane protein), and is prolonged for 60 minutes at a temperature of 37° C. The incubation is ended by fast filtration in a Brandel Cell Harvester through fiber glass filters made by Schleicher & Schuell GF 3362 pretreated with a solution of polyethylenimine at 0.5%. The filters are washed three times with three milliliters of buffer Tris-HCl 50 mM pH 7.4. The filters are transferred to flasks and 5 ml of Ecoscint H liquid scintillation cocktail are added to each flask. The flasks are allowed to reach equilibrium for several hours before counting with a Wallac Winspectral 1414 scintillation counter. Non-specific binding is determined in the presence of 100 μM of serotonin. Tests were made in triplicate. The inhibition constants (Ki, nM) were calculated by non-linear regression analysis using the program EBDA/LIGAND described in Munson and Rodbard, Analytical Biochemistry, 1980, 107, 220, the respective part of which is hereby incorporated by reference and forms part of the disclosure.
The binding of the substituted indole compounds to the 5-HT6 receptor was determined as described above.
Turning to `CCN(CC)C(=O)C(=O)c1c[nH]c2ccc(NS(=O)(=O)c3c(Cl)nc4sccn34)cc12` [Example 9, 2-[5-(6-Chloro-imidazo[2,1-b]thiazole-5-sulfonylamino)-1H-indol-3-yl]-N,N-diethyl-2-oxo-acetamide], the Ki stood at 224 nM. In the case of `CN(C)C(=O)C(=O)c1c[nH]c2ccc(NS(=O)(=O)c3c(Cl)nc4sccn34)cc12` [Example 10, 2-[5-(6-Chloro-imidazo[2,1-b]thiazole-5-sulfonylamino)-1H-indol-3-yl]-N,N-dimethyl-2-oxo-acetamide], the Ki was determined as 18.4 nM. Take `CN(C)C(=O)C(=O)c1c[nH]c2cccc(NS(=O)(=O)c3c(Cl)nc4sccn34)c12` [Example 13, 2-[4-(6-Chloro-imidazo[2,1-b]thiazole-5-sulfonylamino)-1H-indol-3-yl]-N,N-dimethyl-2-oxo-acetamide]: the Ki was 161 nM. The figure for `CN(C)C(=O)C(=O)c1c[nH]c2ccc(NS(=O)(=O)c3ccc(Oc4ccccc4)cc3)cc12` [Example 20, N,N-Dimethyl-2-[5-[(4-phenoxy-phenyl)-1-sulfonylamino]-1H-indol-3-yl]-2-oxo-acetamide] is 113 nM; for `Cc1[nH]c2ccc(NS(=O)(=O)c3c(Cl)nc4sccn34)cc2c1C(=O)C(=O)N(C)C` [Example 22, 2-(5-(6-chloroimidazo[2,1-b]thiazole-5-sulfonamido)-2-methyl-1H-indol-3-yl)-N,N-dimethyl-2-oxoacetamide] it is 52.8 nM.

These data come from patent publication US20070203121A1, “SUBSTITUTED INDOLE COMPOUNDS, THEIR PREPARATION AND USE IN MEDICAMENTS” (LABORATORIOS DEL DR. ESTEVE S.A, priority 2004, published 2007).
